Assay results published in patent US12617783B2, “Heterocyclic GLP-1R agonists” (BIOMEA FUSION, INC., priority 2024, dated 2026).

These compounds were tested against T1, human GLP-1R (Homo sapiens, UniProt P43220) (assay: GLP-1R cAMP assay (Example B1a, HTRF, 30 min at room temperature)). Conditions: cAMP accumulation in HEK293 expressing human GLP-1R, no BETP, 30 min room temperature (Method B1a, compounds ID 1-609), Table 1; read-out: EC50.
T1 construct: host or cells: HEK293
Assay type: cell-based
Method: Assay was carried out with HEK293 expressing human GLP-1R using HTRF assay, developed by Wuxi Apptec. The method is a competitive assay between native cAMP produced by the cells and exogenous cAMP labeled with a proprietary dye d2. The tracer binding is visualized by a mAb anti-cAMP labeled with Cryptate. The signal (i.e. energy transfer) is inversely proportional to the concentration of CAMP in either standard or experimental sample. Compounds were tested in the absence of BETP. Ten microliter of cell suspension in assay buffer (5 mM HEPES, 500 μM IBMX, 0.1% BSA) were added to each well (1,000 cells per well) in a low volume 384-well plate for the assay. Serially diluted compounds were added in 100 nL volume to duplicate wells, by Labcyte Echo. GLP-1 (7-37) was used as positive control. Assay plate was incubated for 30 minutes at room temperature. Stock of cAMP Detection Solution was prepared by mixing 38 parts of cAMP lysis buffer, 1 part of cAMP-D2, 1 part of anti-cAMP cryptate reagent (Cisbio #62AM4PEJ). Ten microliter of the cAMP Detection Solution was added to each well, and the assay plate was incubated for 1 hour at room temperature in the dark. Plates were read on Envision plate reader. The data were analyzed by ScreenUltra in Dotmatics, with % activation expressed using following formula: (Well data−negative control)/(postive control−negative control)*100. Dose response curves were plotted and EC50 values calculated by non-linear regression using 4-parameter fit.

T1 sequence (P43220 24-463): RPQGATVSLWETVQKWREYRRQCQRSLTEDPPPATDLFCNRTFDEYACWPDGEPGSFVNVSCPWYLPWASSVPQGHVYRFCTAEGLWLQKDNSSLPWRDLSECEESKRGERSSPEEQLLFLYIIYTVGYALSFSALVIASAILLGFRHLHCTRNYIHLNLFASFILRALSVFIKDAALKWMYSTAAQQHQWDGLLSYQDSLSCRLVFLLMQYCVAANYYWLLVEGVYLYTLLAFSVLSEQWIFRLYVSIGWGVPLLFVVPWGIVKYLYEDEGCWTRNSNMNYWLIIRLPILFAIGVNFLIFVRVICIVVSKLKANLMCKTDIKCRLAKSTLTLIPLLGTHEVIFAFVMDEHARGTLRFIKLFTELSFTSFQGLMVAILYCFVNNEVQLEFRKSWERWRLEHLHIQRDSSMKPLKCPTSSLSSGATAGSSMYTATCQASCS

| SMILES | EC50 [µM] |
| --- | --- |
| Cc1cc(-n2nc3c(c2-n2ccn(-c4ccc5c(cnn5C)c4F)c2=O)[C@@H]2CC[C@H](C3)N2C(=O)c2cc3ccc(C4CCOC(C)(C)C4)cc3nc2C2(c3noc(=O)[nH]3)CC2)cc(C)c1F (stereo partly drawn) [Compound 126, 3-[1-[7-(2,2-dimethyltetrahydropyran-4-yl)-3-[(1S,8R)-4-(4-fluoro-3,5-dimethyl-phenyl)-3-[3-(4-fluoro-1-methyl-indazol-5-yl)-2-oxo-imidazol-1-yl]-4,5,11-triazatricyclo[6.2.1.02,6]undeca-2,5-diene-11-carbonyl]-2-quinolyl]cyclopropyl]-4H-1,2,4-oxadiazol-5-one] | > 10 |
| Cc1cc(-n2nc3c(c2-n2ccn(-c4ccc5c(cnn5C)c4F)c2=O)[C@@H]2CC[C@H](C3)N2C(=O)c2cc3nc(C4CCOC(C)(C)C4)sc3cc2C2(c3noc(=O)[nH]3)CC2)cc(C)c1F (stereo partly drawn) [Compound 129, 3-[1-[2-(2,2-dimethyltetrahydropyran-4-yl)-5-[(1S,8R)-4-(4-fluoro-3,5-dimethyl-phenyl)-3-[3-(4-fluoro-1-methyl-indazol-5-yl)-2-oxo-imidazol-1-yl]-4,5,11-triazatricyclo[6.2.1.02,6]undeca-2,5-diene-11-carbonyl]-1,3-benzothiazol-6-yl]cyclopropyl]-4H-1,2,4-oxadiazol-5-one] | > 10 |
| Cc1cc(-n2nc3c(c2-n2ccn(-c4ccc5nn(CCN6CCOCC6)cc5c4F)c2=O)[C@@H]2CC[C@H](C3)N2C(=O)c2cc3cc([C@H]4CCOC(C)(C)C4)ccc3n2[C@@]2(c3noc(=O)[nH]3)C[C@@H]2C)cc(C)c1F [Compound 131, 3-[(1S,2S)-1-[5-[(4S)-2,2-dimethyltetrahydropyran-4-yl]-2-[(1S,8R)-4-(4-fluoro-3,5-dimethyl-phenyl)-3-[3-[4-fluoro-2-(2-morpholinoethyl)indazol-5-yl]-2-oxo-imidazol-1-yl]-4,5,11-triazatricyclo[6.2.1.02,6]undeca-2,5-diene-11-carbonyl]indol-1-yl]-2-methyl-cyclopropyl]-4H-1,2,4-oxadiazol-5-one] | > 10 |
| Cc1cc(-n2nc3c(c2-n2ccn(-c4ccc5c(cnn5C)c4F)c2=O)[C@@H]2CC[C@H](C3)N2C(=O)c2cc3sc(C4CCOC(C)(C)C4)nc3cc2C2(c3noc(=O)[nH]3)CC2)cc(C)c1F (stereo partly drawn) [Compound 133, 3-[1-[2-(2,2-dimethyltetrahydropyran-4-yl)-6-[(1S,8R)-4-(4-fluoro-3,5-dimethyl-phenyl)-3-[3-(4-fluoro-1-methyl-indazol-5-yl)-2-oxo-imidazol-1-yl]-4,5,11-triazatricyclo[6.2.1.02,6]undeca-2,5-diene-11-carbonyl]-1,3-benzothiazol-5-yl]cyclopropyl]-4H-1,2,4-oxadiazol-5-one] | > 10 |
| Cc1cc(-n2nc3c(c2-n2ccn(-c4ccc5c(cnn5C)c4F)c2=O)[C@@H]2CC[C@H](C3)N2C(=O)c2cc3cc(C4CCOC5(C4)CN(C)C5)ccc3n2C2(c3noc(=O)[nH]3)CC2)cc(C)c1F (stereo partly drawn) [Compound 135, 3-[1-[2-[(1S,8R)-4-(4-fluoro-3,5-dimethyl-phenyl)-3-[3-(4-fluoro-1-methyl-indazol-5-yl)-2-oxo-imidazol-1-yl]-4,5,11-triazatricyclo[6.2.1.02,6]undeca-2,5-diene-11-carbonyl]-5-(2-methyl-5-oxa-2-azaspiro[3.5]nonan-8-yl)indol-1-yl]cyclopropyl]-4H-1,2,4-oxadiazol-5-one] | > 10 |
| Cc1cc(-n2nc3c(c2-n2ccn(-c4ccc5c(cnn5C)c4F)c2=O)[C@@H]2CC[C@H](C3)N2C(=O)c2cc3cc(C4CCOC5(COC5)C4)ccc3n2C2(c3noc(=O)[nH]3)CC2)cc(C)c1F (stereo partly drawn) [Compound 136, 3-[1-[5-(2,5-dioxaspiro[3.5]nonan-8-yl)-2-[(1S,8R)-4-(4-fluoro-3,5-dimethyl-phenyl)-3-[3-(4-fluoro-1-methyl-indazol-5-yl)-2-oxo-imidazol-1-yl]-4,5,11-triazatricyclo[6.2.1.02,6]undeca-2,5-diene-11-carbonyl]indol-1-yl]cyclopropyl]-4H-1,2,4-oxadiazol-5-one] | > 10 |
| Cc1cc(-n2nc3c(c2-n2ccn(-c4ccc5c(cnn5C)c4F)c2=O)[C@@H]2CC[C@H](C3)N2C(=O)c2cc3cc([C@H]4CCOC(C)(C)C4)ccc3n2[C@@]2(C#N)C[C@@H]2C)cc(C)c1F [Compound 137, trans-(1S,2S)-1-[5-[(4S)-2,2-dimethyltetrahydropyran-4-yl]-2-[(1S,8R)-4-(4-fluoro-3,5-dimethyl-phenyl)-3-[3-(4-fluoro-1-methyl-indazol-5-yl)-2-oxo-imidazol-1-yl]-4,5,11-triazatricyclo[6.2.1.02,6]undeca-2,5-diene-11-carbonyl]indol-1-yl]-2-methyl-cyclopropanecarbonitrile] | > 10 |

The next lines start with the values.

| EC50 [µM] | SMILES |
| --- | --- |
| 0.381 | Cc1cc(-n2nc3c(c2-n2ccn(-c4ccc5cnncc5c4)c2=O)[C@@H]2CC[C@H](C3)N2C(=O)c2cc3cc([C@H]4CCOC(C)(C)C4)ccc3n2[C@@]2(c3noc(=O)[nH]3)C[C@@H]2C)cc(C)c1F [Compound 127, 3-((1S,2S)-1-(5-((S)-2,2-dimethyltetrahydro-2H-pyran-4-yl)-2-((4S,7R)-2-(4-fluoro-3,5-dimethylphenyl)-3-(2-oxo-3-(phthalazin-6-yl)-2,3-dihydro-1H-imidazol-1-yl)-2,4,5,6,7,8-hexahydro-4,7-epiminocyclohepta [c]pyrazole-9-carbonyl)-1H-indol-1-yl)-2-methylcyclopropyl)-1,2,4-oxadiazol-5 (4H)-one] |
| 0.137 | Cc1cc(-n2nc3c(c2-n2ccn(-c4ccc5c(cnn5C)c4F)c2=O)[C@@H]2CC[C@H](C3)N2C(=O)c2cc3cc([C@H]4CCOC(C)(C)C4)ccc3n2[C@@]2(c3nnn[nH]3)C[C@@H]2C)cc(C)c1F [Compound 128, 1-((4S,7R)-9-(5-((S)-2,2-dimethyltetrahydro-2H-pyran-4-yl)-1-((1S,2S)-2-methyl-1-(1H-tetrazol-5-yl)cyclopropyl)-1H-indole-2-carbonyl)-2-(4-fluoro-3,5-dimethylphenyl)-2,4,5,6,7,8-hexahydro-4,7-epiminocyclohepta [c]pyrazol-3-yl)-3-(4-fluoro-1-methyl-1H-indazol-5-yl)-1H-imidazol-2 (3H)-one] |
| > 10 | Cc1cc(-n2nc3c(c2-n2ccn(-c4ccc5c(cnn5C)c4F)c2=O)[C@@H]2CC[C@H](C3)N2C(=O)c2nc3cc(C4CCOC(C)(C)C4)ccc3n2C2(c3noc(=O)[nH]3)CC2)cc(C)c1F (stereo partly drawn) [Compound 130, 3-[1-[5-(2,2-dimethyltetrahydropyran-4-yl)-2-[(1S,8R)-4-(4-fluoro-3,5-dimethyl-phenyl)-3-[3-(4-fluoro-1-methyl-indazol-5-yl)-2-oxo-imidazol-1-yl]-4,5,11-triazatricyclo[6.2.1.02,6]undeca-2,5-diene-11-carbonyl]benzimidazol-1-yl]cyclopropyl]-4H-1,2,4-oxadiazol-5-one] |
| > 10 | Cc1cc(-n2nc3c(c2-n2ccn(-c4ccc5c(cnn5C)c4F)c2=O)[C@@H]2CC[C@H](C3)N2C(=O)c2cc3cc([C@H]4CCOC(C)(C)C4)ccc3n2C2(c3noc(=O)[nH]3)CCC2)cc(C)c1F [Compound 134, 3-[1-[5-[(4S)-2,2-dimethyltetrahydropyran-4-yl]-2-[(1S,8R)-4-(4-fluoro-3,5-dimethyl-phenyl)-3-[3-(4-fluoro-1-methyl-indazol-5-yl)-2-oxo-imidazol-1-yl]-4,5,11-triazatricyclo[6.2.1.02,6]undeca-2,5-diene-11-carbonyl]indol-1-yl]cyclobutyl]-4H-1,2,4-oxadiazol-5-one] |
